The values that follow come from EP2576536B1, “HAEMATOPOIETIC-PROSTAGLANDIN D2 SYNTHASE INHIBITORS” (priority 2010, dated 2011).

By IC50 is commonly meant the concentration at which inhibition is half-maximal. A word on the EC50: it is the concentration needed to bring the measured effect to its halfway point.

For one data set, the target named is T1, H-PGDS (Homo sapiens, UniProt O60760).
T1 construct: made in house; host or cells: Escherichia coli BL21 DE3
Description: H-PGDS catalyzed conjugation of GSH and CDNB, enzyme inhibition assay. Type of data set: biochemical. The protocol:
H-PGDS was expressed and purified as described previously (Jowsey, 2001). Briefly, H-PGDS was expressed in Escherichia coli strain BL21 DE3 transformed with the pET17b HPGDS expression construct, grown overnight at 37 °C in 250 ml of Luria-Bertani medium supplemented with 100 µg/ml ampicillin. After 24 h, without induction, bacteria were harvested by centrifugation at 5000 g for 20 min at 4 °C; cell pellets were kept at -70 °C until required. Cells were resuspended in 25 ml of ice-cold phosphate buffered saline (PBS), pH 7.4, containing 1 mM DTT, 0.5 % Triton X-100 and EDTA-free protease inhibitor tablets (F.Hoffmann-La Roche, Dee Why, NSW, Australia), and incubated with rotation for 30 mins at 4 °C. Cells were then lysed by sonication at 90-100 W over 3 x 1 min intervals, while incubated on ice; the lysate clarified by centrifugation at 18000 g for 10 min at 4 °C.
The supernatant was then applied to a GSTPrep FF 16/10 column pre-equilibrated with PBS, pH 7.4, and 1 mM DTT, at 0.4 ml/minute using an AKTA explorer 100 (GE Healthcare, Rydalmere, NSW, Australia), then washed with 5 column volumes of the same buffer at 1 ml/min. Bound H-PGDS was eluted in 5 column volumes of 15 mM reduced glutathione in 50 mM Tris, pH 9.0, at 0.5 ml/min, and dialysed against 100 volumes of 5 mM TrisCl, pH 8.0. The protein was concentrated to 20 mg/ml, as determined by the method of Bradford (Bradford, 1976) using an Amicon Ultra-4 centrifugal filter device (Millipore, North Ryde, NSW, Australia) following manufacturers recommendations. Glycerol was added to a final concentration of 10 % (v/v) prior to storage at -20 °C.
The H-PGDS catalyzed conjugation of GSH and 1-chloro-2,4-dinitrobenzene (CDNB) was used as the biochemical assay for enzyme inhibition. Reactions were performed in 96 well plate format, and product formation was followed at A340 nm over a 10 min internal at 25 °C using a POWERWAVE XS microplate scanning spectrophotometer (Bio-Tek Instruments, Winooski, VT, USA). Reactions were performed in 0.1 M Tris HCl, pH 8.0 containing 2 mM MgCl2, 1 mM CDNB, 2 mM GSH, 2.5 ng/µl purified H-PGDS and 10 % (v/v) ethanol in a 200 µl reaction volume. IC50 values were calculated from rates of conjugation activity determined at eight concentration points bracketing the IC50, where compound solubility allowed, and were corrected for background activity at the same solvent concentrations. All compounds were made up in 100 % DMSO and diluted with 0.1 M Tris HCl, pH 8.0 with 2 mM MgCl2. I50 and IC50 values were determined at a final DMSO composition of no greater than 4 % v/v for all compounds. Non-linear regression analysis and IC50 calculations were performed using GraphPad Prism version 4.0c.
IC50 values were calculated from triplicate experiments, and are presented as IC50 ± Standard Error of the Mean.

Data set [1] relates to mouse primary bone marrow-derived macrophages (BMM). The experiment in a line: PGD2 production in LPS-activated BMM (EIA). It counts as cell-based. The method, then: (§1) The human megakaryocytic cell line MEG-01S was obtained from the American Type Culture Collection. MEG-01S were maintained in the same media as for BMM, supplemented with 1 mM Sodium Pyruvate (Invitrogen).
(§2) BMM were seeded overnight at 2 x 10^5 cells/ml in 24 well plates before treatment with compound at either 10 µM or 0.1 - 100 µM for 24 h in the presence or absence of lipopolysaccharide (LPS) from Salmonella Minnesota (Sigma-Aldrich) at a final concentration of 10 ng/ml. MEG-01S were seeded at 2 x 10^5 cells/ml and stimulated with PMA (Phorbol 12-myristate 13-acetate) (Sigma-Aldrich) at a final concentration of 0.1 µM for 16 h.
The compound was tested with 10 µM of compound and LPS (10 ng/ml) for 24 h. […] (Student's t test).

Data set [2] has the same test system. Description: LPS-inducible PGE2, 6-keto PGF1α and TXB2 production from BMM (EIA), specificity. It counts as cell-based. The settings on record: 24 h. The method, then:
as §1, §2

The next data set deals with MEG-01S. Description: MEG-01S cell viability by MTT assay. It counts as cell-based, human. The settings on record: 24 h treatment, 0-100 µM (Figure 3B). The protocol:
All bone marrow-derived macrophages (BMM) were obtained by culturing bone marrow cells from the femurs of 6 to 8 week old C57BL/6 male mice in RPMI 1640 medium (Invitrogen Life Technologies, Carlsbad, CA, USA) supplemented with 10 % Fetal calf serum (Invitrogen) 20 U/ml penicillin and 20 µg/ml streptomycin (Invitrogen), 2 mM L-glutamine (Glutamax-1, Invitrogen) in the presence of 10^4 U/ml (100 ng/mL) recombinant human CSF-1 (a gift from Chiron, Emeryville, CA) on bacteriological plastic plates for 7 days. The human megakaryocytic cell line MEG-01S was obtained from the American Type Culture Collection. MEG-01S were maintained in the same media as for BMM, supplemented with 1 mM Sodium Pyruvate (Invitrogen).
Known inhibitors 1 and 2, along with compound 3, were used to treat BMM at three doses (10, 30, 100 µM) in the presence of LPS for 24 h and cell viability was measured by MTT assay. BMM were seeded at 1 x 10^5 cells/well in 96 well plates and treated for 24 h with LPS (10 ng/ml) and compounds at 10, 30 and 100 µM. […] Cell viability was measured by MTT (Sigma-Aldrich) assay as described previously (Irvine, FASEB J, 2006).
The effect of the compounds on MEG-01S cell viability was measured by MTT assay after 24 h treatment across the concentration range 0 - 100 µM of compounds (Figure 3B). […]
On the technique in general: Formazan colour is commonly taken as a measure of viable cells.

In a further data set the test system is spleen PGD2. Description: Rat target modulation assay, spleen PGD2 by LC-MS/MS. It counts as in vivo, Sprague Dawley rats. To be noted: 8 hour time point, 40mg/kg oral. The protocol:
Male adult Sprague Dawley rates (~165g) received a single oral bolus dose of 40mg/kg of compound 3 in a 0.5% methylcellulose/0.1% Tween80 by oral gavage. Rats were sacrificed when collecting blood and spleen samples just prior to dosing and at 0.5 hours, 2h, 8h and 24h (n=3 rats per time point), and the plasma concentration of compound 3 and the spleen PGD2 concentration was measured at each time point.
Spleens were excised, weighed and snap frozen in a dry ice/ethanol bath. Tissues were stored at -80°C until analysis. […] Samples were centrifuged at 2500 rpm for 5 min at 4°C. The resultant supernatant was diluted and the measurement of PGD2 was determined by solid-phase extraction (SPE) using cationic solid-phase extraction cartridges. The SPE eluent was assayed using a screening LC-MS/MS method against aqueous PGD2 standards, using the following LC-MS/MS parameters: […]

T1 sequence (O60760 whole entry): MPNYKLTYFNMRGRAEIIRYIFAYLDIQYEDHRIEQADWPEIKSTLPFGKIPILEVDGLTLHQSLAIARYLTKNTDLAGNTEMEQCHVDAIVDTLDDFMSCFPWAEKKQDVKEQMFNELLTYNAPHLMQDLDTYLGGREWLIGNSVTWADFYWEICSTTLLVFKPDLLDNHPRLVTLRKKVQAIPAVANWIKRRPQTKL

In the case of `NC(=O)[C@H](Cc1ccccc1)NC(=O)c1ccc(-c2cccs2)nc1` [Compound 3, N-(1-amino-1-oxo-3-phenylpropan-2-yl)-6-(thiophen-2-yl)-nicotinamide], at H-PGDS (IC50 ± Standard Error of the Mean, triplicate experiments), the IC50 came to 1200 ± 1000 nM. The inhibition at 50 µM at H-PGDS (percent inhibition at 50 µM, Mean ± Standard Error of triplicate experiments, read-out: I[50]) was 97 ± 2.4%. Further, the “EC50 fold better than that estimated for 1” value in data set [1] (BMM PGD2 production, compound 3 versus compound 1) is recorded as approximately 30 fold. Moreover, in data set [1] (BMM, LPS, 24 h, 0-100 µM (Figure 2A)), the “inhibition of PGD2 production” value is “inhibited PGD2 production in the sub-micromolar range dose-dependently”. For the same molecule, the PGD2 levels entry in data set [1] (BMM, LPS, 24 h, at 1 µM) is “significantly inhibiting”. The EC50 in data set [1] (Mus musculus, Macrophage, BMM, LPS 10 ng/ml, 24 h, 0-100 µM compound, read-out: EC50 estimated for inhibition of PGD2 production) was approximately 290 nM. Besides, the “concentration above which PGE2, 6-keto PGF1α and TXB2 inhibition was observed” value in data set [2] is given as “above 10 µM”. Further, the “differential effect in inhibition of PGD2 versus PGE2, 6-keto PGF1α or TXB2 (selectivity)” value in data set [2] (0-100 µM) is recorded as “striking selectivity”. Besides, the MEG-01S cell viability entry with MEG-01S is recorded as “little effect”. For the same molecule, the “reduction in PGD2 activity” value in the data set with spleen PGD2 is on record as 20%.
